Results published in ChEMBL document CHEMBL1128690, “Design of potent non-thiourea H3-receptor histamine antagonists” (J Med Chem, 1995).

What was measured:
Histamine H3 receptor [1] = target: T1, Histamine H3 receptor (Rattus norvegicus, UniProt Q9QYN8); assay: In vitro antagonism of the histamine H3-receptor in the rat cerebral cortex.; format: functional, tissue-based
Histamine H3 receptor [2] = target: T1, Histamine H3 receptor; assay: The compound was tested in vitro for antagonistic activity against H3-receptor in the rat cerebral cortex; Not active (tested up to 1000 nM); format: functional, tissue-based

T1 sequence (Q9QYN8 whole entry): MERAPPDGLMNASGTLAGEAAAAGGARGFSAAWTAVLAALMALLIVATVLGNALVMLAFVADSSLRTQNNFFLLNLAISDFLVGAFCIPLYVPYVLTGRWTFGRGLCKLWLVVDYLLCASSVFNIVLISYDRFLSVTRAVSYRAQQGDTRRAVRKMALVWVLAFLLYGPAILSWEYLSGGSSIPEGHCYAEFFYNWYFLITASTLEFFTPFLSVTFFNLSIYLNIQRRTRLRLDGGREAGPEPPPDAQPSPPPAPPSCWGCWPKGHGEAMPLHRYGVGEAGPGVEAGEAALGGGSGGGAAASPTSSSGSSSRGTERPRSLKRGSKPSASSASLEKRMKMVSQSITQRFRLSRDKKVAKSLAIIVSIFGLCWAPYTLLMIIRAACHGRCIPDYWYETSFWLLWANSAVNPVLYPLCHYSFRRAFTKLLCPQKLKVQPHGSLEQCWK

SMILES | Ki (Histamine H3 receptor [1]) | Ki (Histamine H3 receptor [2])
COC(=O)c1ccc(NCCc2cnc[nH]2)nc1 | 42 nM | –
S=C(NCCCn1ccnc1)NC1CCCCC1 | – | Not Active
S=C(NCCSCc1c[nH]cn1)NC1CCCCC1 | ~500 nM | –
FC(F)(F)c1ccc(N2CCC(c3cnc[nH]3)CC2)nc1 | 42 nM | –
c1c[nH]c(SCCc2cnc[nH]2)n1 | 400 nM | –
S=C(NCCc1c[nH]cn1)NC1CCCCC1 | ~200 nM | –
S=C(NCCCc1cnc[nH]1)NC1CCCCC1 | 13 nM | –
CNC(=S)NCCCCc1cnc[nH]1 [BURIMAMIDE] | 70 nM | –
S=C(NC1CCCCC1)N1CCC(c2cnc[nH]2)CC1 [THIOPERAMIDE] | 4.3 nM | –

Next, values leading:

Ki (Histamine H3 receptor [1]) | Ki (Histamine H3 receptor [2]) | SMILES
160 nM | – | Clc1cc(NCCc2cnc[nH]2)ccn1
~1000 nM | – | O=[N+]([O-])c1ccc(NCCc2ccccn2)nc1
170 nM | – | O=[N+]([O-])c1ccc(NCCCc2c[nH]cn2)nc1
~600 nM | – | O=[N+]([O-])c1ccc(SCc2c[nH]cn2)nc1
92 nM | – | c1ccc(SCCc2cnc[nH]2)nc1
17 nM | – | FC(F)(F)c1ccc(NCCc2cnc[nH]2)nc1
> 10000 nM | – | c1ccc(CCNc2ncccn2)nc1
200 nM | – | c1cnc(NCCc2c[nH]cn2)cn1
53 nM | – | O=[N+]([O-])c1cc[n+]([O-])c(NCCc2c[nH]cn2)c1
200 nM | – | c1ccc(NCCc2c[nH]cn2)nc1
240 nM | – | O=[N+]([O-])c1cccnc1NCCc1c[nH]cn1
340 nM | – | c1csc(NCCc2cnc[nH]2)n1
29 nM | – | O=[N+]([O-])c1ccc(NCCc2c[nH]cn2)nc1
